We go through seven molecules from PMC7757987, “Antitumor Activity and Mechanism Study of Riluzole and Its Derivatives” (Iranian Journal of Pharmaceutical Research : IJPR, 2020).

Where two headings read alike, the source gives them in different places.

In data set [1] the test system is SP2/0 (mouse myeloma cell line). In words: CCK-8 anti-proliferative assay, SP2/0. The data set is classed as cell-based. To be noted: for IC50: Mus musculus, CCK-8, 48 h, read-out: Cytotoxicity (IC50) SP2/0; for Selectivity index (SI) SP2/0: IC50 LO2 / IC50 SP2/0. The procedure: (§1) HeLa (human cervical cancer cell line), HepG2 (human liver cancer cell line), SP2/0 (mouse myeloma cell line), and LO2 (human normal liver cell line) were cultured in DMEM medium. Each medium was supplemented with 10% fetal bovine serum, 1% L-glutamine and 1% penicillin/streptomycin solution. The cell lines were kept in the incubator at 37 ℃ in a humidified atmosphere (90% RH) containing 5% CO2. […] The cell lines SP2/0 and MCF-7 were obtained from Laboratory Center of Shaanxi Province People’s Hospital.
(§2) 2×10^3 cells per well were planted into 96-well plates in 100 μL growth medium and incubated for 24 h. […] The mixture was incubated at 37 ℃ under a humidified 5% CO2 atmosphere. After incubation, 10 μL CCK-8 solution was added to each well and the cells were further incubated for 2 h at 37 ℃ according to the CCK-8 Technical Manual. Then, the OD value for each well was read at wavelength 450 nm to determine the cell viability on a microplate reader (Synergy HT, USA). […] The independent experiment was repeated at least three times. The percentage of growth inhibition was calculated as follows according to reference ([18]),
(§3) % of growth inhibition = [1 - absorbance of treated cells/absorbance of untreated cells] × 100%
(In general: Tetrazolium dyes change colour on reduction, which living cells bring about.)

Data set [2] can be described thus: CCK-8 cytotoxicity assay, normal LO2 cells. The data set is classed as cell-based, human. To be noted: human, LO2 normal liver cells; CCK-8, 48 h, normal liver cells; read-out: Cytotoxicity (IC50) L02. The procedure:
as §1, §2, §3

Data set [3] has as its system MCF-7 (human breast cancer cell line). In words: CCK-8 anti-proliferative assay, MCF-7. The data set is classed as cell-based. The following applies: for IC50: Homo sapiens, MCF7, CCK-8, 48 h; for Selectivity index (SI) MCF-7: IC50 LO2 / IC50 MCF-7. The procedure: as §1, §2, §3
The test system of data set [4] is HepG2 (human liver cancer cell line). Put plainly: CCK-8 anti-proliferative assay, HepG2. The data set is classed as cell-based. The following applies: for IC50: Homo sapiens, HepG2, CCK-8, 48 h, read-out: Cytotoxicity (IC50) HepG2; for Selectivity index (SI) HepG2: IC50 LO2 / IC50 HepG2. The procedure: as §1, §2, §3
Data set [5] deals with HeLa (human cervical cancer cell line). Put plainly: CCK-8 anti-proliferative assay, HeLa. The data set is classed as cell-based. To be noted: for IC50: Homo sapiens, HeLa, CCK-8, 48 h, read-out: Cytotoxicity (IC50) HeLa; for Selectivity index (SI) HeLa: IC50 LO2 / IC50 HeLa. As for the experimental part:
as §1, §2, §3

[6] abbreviates: read-out: Cytotoxicity (IC50) MCF-7.

On to `CNC(=O)c1cc(Oc2ccc(NC(=O)Nc3ccc(Cl)c(C(F)(F)F)c3)cc2)ccn1` [Sorafenib, reference compound], for which the IC50 in data set [1] is 4.25 ± 0.75 µM; in data set [3] (setting [6]) it was 7.66 ± 0.73 µM; in data set [4], 12 ± 2.12 µM; in data set [5], 5.16 ± 0.62 µM. For the same molecule, the IC50 at 48 h in data set [2] worked out at 11.9 ± 0.32 µM.

Turning to `CC1CCN(c2nc3ccc(OC(F)(F)F)cc3s2)CC1` [Compound 4i, 2-(N-4-methyl-1-piperidinyl)-6-trifluoromethoxy-benzothiazole], the melting point was in the range of 77 to 78 °C. Moreover, in data set [1], the “Selectivity index (SI) SP2/0” value was determined as 9.68 and the IC50 is 11.5 ± 0.85 µM. For the same molecule, the IC50 at 48 h in data set [2] was > 100 µM. Moreover, the IC50 in data set [3] (setting [6]) was > 100 µM. In addition, the IC50 in data set [3] (read-out: IC50 in MCF-7 cells) was found to be 11.5 µM. For the same molecule, the IC50 in data set [4] is > 100 µM. Also, the IC50 in data set [5] was > 100 µM.

In the case of `FC(F)(F)Oc1ccc2nc(NC3CCCCC3)sc2c1` [Compound 4e], the melting point lay within 96 to 97 °C. In data set [1], the “Selectivity index (SI) SP2/0” value was 1.91 and the IC50 was 17.7 ± 0.81 µM. For the same molecule, the IC50 at 48 h in data set [2] was found to be 33.8 ± 2.4 µM. Moreover, the IC50 in data set [3] (setting [6]) was determined as 20.5 ± 1.09 µM. For the same molecule, the “Selectivity index (SI) MCF-7” value in data set [3] is 1.65. Further, in data set [4], the IC50 worked out at 20.2 ± 0.93 µM and the “Selectivity index (SI) HepG2” value is recorded as 1.67. Besides, in data set [5], the IC50 was found to be 20.9 ± 0.98 µM and the “Selectivity index (SI) HeLa” value is listed as 1.62.

Turning to `CCCNc1nc2ccc(OC(F)(F)F)cc2s1` [Compound 4b], the melting point was 88 to 89 °C. Moreover, in data set [1], the “Selectivity index (SI) SP2/0” value stood at 0.69 and the IC50 is 46.4 ± 3.62 µM. Moreover, the IC50 at 48 h in data set [2] is 32.2 ± 3.03 µM. The IC50 in data set [3] (setting [6]) was found to be 12.9 ± 0.69 µM. Besides, in data set [3], the “Selectivity index (SI) MCF-7” value was 2.50. Moreover, in data set [4], the IC50 was determined as 18 ± 0.88 µM and the “Selectivity index (SI) HepG2” value came out at 1.79. In addition, in data set [5], the IC50 came out at 30.1 ± 1.28 µM and the “Selectivity index (SI) HeLa” value is given as 1.07.

Consider `CCCCNc1nc2ccc(OC(F)(F)F)cc2s1` [Compound 4c], for which the melting point is 76 to 78 °C. In data set [1], the “Selectivity index (SI) SP2/0” value is 0.43 and the IC50 was 59 ± 3.32 µM. Besides, the IC50 at 48 h in data set [2] was determined as 25.6 ± 3.12 µM. For the same molecule, in data set [3] (setting [6]), the IC50 was 21.9 ± 0.97 µM. Also, the “Selectivity index (SI) MCF-7” value in data set [3] was 1.17. Besides, the IC50 in data set [4] is > 100 µM. In data set [5], the IC50 is 16.7 ± 0.94 µM and the “Selectivity index (SI) HeLa” value was 1.53.

Turning to `CCN(CC)c1nc2ccc(OC(F)(F)F)cc2s1` [Compound 4d, (N-diaethylamine)-6-trifluoromethoxy-benzothiazole], the melting point lay in the range of 38 to 39 °C. In addition, the IC50 in data set [1] was determined as 48.5 ± 3.41 µM. Further, the IC50 at 48 h in data set [2] was > 100 µM. Besides, in data set [3] (setting [6]), the IC50 was found to be 46.6 ± 2.77 µM. Further, in data set [4], the IC50 was > 100 µM. In data set [5], the IC50 was > 100 µM.

As for `FC(F)(F)Oc1ccc2nc(N3CCCCC3)sc2c1` [Compound 4g, 2-(N-piperidine)-6-trifluoromethoxy-benzothiazole], the melting point lay within 74 to 75 °C. In data set [1], the “Selectivity index (SI) SP2/0” value is given as 4.12 and the IC50 stood at 32.6 ± 1.44 µM. For the same molecule, the IC50 at 48 h in data set [2] is > 100 µM. Besides, the IC50 in data set [3] (setting [6]) stood at 25.8 ± 1.21 µM. For the same molecule, in data set [3], the “Selectivity index (SI) MCF-7” value is reported as 5.20. Moreover, in data set [4], the IC50 is > 100 µM. Besides, the IC50 in data set [5] was > 100 µM.

The melting point is the temperature of the solid-liquid transition.
